Read-outs that look alike come from different tables or passages of the source.
What was measured:
[1] = Cell viability (survival) assay with CellTiter-Glo, 48 hours; format: cell-based, mouse; settings: mouse, B16F10 melanoma tumor cells, 48 hours, normalized to DMSO-treated control cells
Description: For assays of survival, 15,000 cells were plated per well in a 96-well plate in 100 μl media with 5 replicates per condition. Wells along the four edges of the plate were not used. Following cell attachment, the indicated drugs were added in an equal volume of media, and incubated for an additional 48 hours. The media was then removed and replaced with 100 ul of fresh media at room temperature. Following a 30 minute incubation at room temperature, 50 μl of CellTiter-Glo reagent was added, followed by 2 minutes of gentle mixing. The plate was incubated at room temperature for an additional 10 minutes. 100 μl of supernatant was transferred to a 96-well white opaque plate and luminescence was read on a Tecan microplate reader. Values were normalized to those of DMSO-treated control cells.

[2] = system: B16-Ova cells; test: HMGB1 in cell culture media by ELISA; format: cell-based, mouse; settings: for HMGB1 (ng/ml) MEAN: culture media 24-48 hours after treatment
Description: Cell-free cell culture media was then analyzed by ELISA for HMGB1 according to the manufacturer's protocol.

[3] = system: B16-Ova cells; test: Calreticulin surface exposure by flow cytometry; settings: for CALR (%): 24 hours after treatment, representative experiment; for level of externalized calreticulin: 24 hours of drug exposure
[4] = system: B16-Ova cells; test: In vitro cross presentation assay: drug-treated B16-Ova cells, BMDC and OT-1 CD8+ T-cells, IFN-γ+ T-cells by flow cytometry; format: cell-based, mouse; parameters: reduction of the percentage of IFNg+ T-cells by siRNA knockdown of calreticulin / reduction of T-cell IFN-γ responses / frequency of IFN-γ+ T-cells: concentration or dose not given beside the values; settings: for inducing the appearance of IFNγ+OT-1 CD8+ T-cells: 50 μM etoposide or 10 μM mitoxantrone; for reduction of the percentage of IFNg+ T-cells by siRNA knockdown of calreticulin: compared to siRNA controls
Description: B16-Ova or MC-38 Ova cells were treated with various doses of chemotherapeutic drugs for 24 h followed by extensive washing in IMDM (10% FBS, P/S). Subsequently 1×10^6 treated cells were co-cultured with 2.5×10^5 BMDC per well of a 24-well plate for each condition tested. After 24 hours of co-culture, supernatants were removed from each well and the BMDC washed 2-3 times in T-cell media (RPMI containing 10% FBS, 20 mM HEPES, 1 mM sodium pyruvate, 55 uM b-mercaptoethanol, 2 mM L-glutamine, nonessential amino acids and antibiotics). CD8+OT-I T-cells isolated from spleens of OT-I mice were then co-cultured with the BMDC at 125,000 T-cells per well to achieve an effector to target ratio of 0.5. Where indicated, BMDC and/or T-cells were also exposed to chemotherapy drugs. After a 12-15 h incubation, IFN-g producing T-cells were identified and quantified by intra-cellular cytokine staining and flow cytometry using a BD LSR II or Fortessa flow cytometer. Cells were first gated for CD3 expression, then re-gated for CD8 and IFNg expression.
An experimental system was developed to assess dendritic cell-mediated T-cell priming using the B16-Ova cells, in combination with primary bone-marrow derived dendritic cells (BMDC) and OT-I CD8+ T-cells expressing a TCR transgene that specifically recognizes the Ova-derived peptide […] (SEQ ID NO:1) in the context of H2-Kb (OT-1) (Clarke, et al., Immunol Cell Biol., 78(2):110-7 (2000); Hogquist, et al., Cell, 76(1):17-27 (1994)). […] The treated B16-Ova cells/BMDC co-culture was then incubated with purified CD8+ T-cells obtained from the spleens of OT-1 mice, and the appearance of IFNg+CD8 T-cells was measured 12-15 hours later by intracellular staining and subsequent quantification using flow cytometry.

[5] = system: B16-Ova cells; test: ATP levels in cell-free culture media by CellTiter-Glo; format: cell-based, mouse; settings: for ATP (nM) MEAN: culture media 24-48 hours after treatment
Description: For measurement of ATP levels, cell-free culture media obtained as above was analyzed by CellTiter-Glo according to the manufacturer's protocol. Values were converted to ATP concentrations using a standard curve generated using pure ATP.

[6] = system: B16-Ova cells; test: Proportion of live and dead cells (AnnV/DAPI) after 24 h treatment with increasing doses; format: cell-based, mouse
Description: B16-Ova cells or MC-38-Ova cells were treated with various doses of chemotherapy as indicated in FIGS. 1F-1I for 24 hours after which the floating fraction of cells was transferred to a separate tube and washed with PBS (for AnnV/DAPI staining) or IMDM (for co-culture with BMDC). The attached fraction was rinsed 1× with PBS, detached using 5 mM EDTA (in PBS), washed with PBS or IMDM and transferred to a separate tube. Separately, cells treated with chemotherapy for 24 h were re-plated at 1 million cells per well of a 24-well plate in 500 ul of IMDM (10% FBS; P/S). Cell-free supernatants were collected after a further 24 h. […] Lysate of the total chemotherapy-treated cell mixture was generated by three rounds of freeze-thawing by alternate incubations in liquid nitrogen and a 37 C water bath.

[7] = system: B16F10 melanoma tumor cell line; test: Cell death by AnnexinV/DAPI staining 48 hours after drug treatment; format: cell-based, mouse; settings: 48 hours; for cell death by DAPI and Annexin V staining: at the concentrations used; for cytotoxicity at 10 µM / viability at 10 µM / cytotoxicity at 50 µM / viability at 50 µM: Mus musculus, B16-F10; for viability at 10 µM / viability at 50 µM: read-out: AnnV−DAPI− (%) Mean
Description: For assessment of cell death, floating and attached cells were harvested after 48 hours of treatment with the indicated chemotherapeutic drugs. Attached cells were detached using 5 mM EDTA in PBS. The recovered cells were centrifuged at 250×g for 5 minutes, washed once in PBS containing 0.9 mM Ca2+ and 0.5 mM Mg2+ and then stained with AnnV-FITC for 15 minutes in Annexin binding buffer at room temperature according to the manufacturer's protocol (Biolegend). Cells were co-stained with DAPI at a final concentration of 1 μg/ml for 2 minutes in Annexin binding buffer, brought to a final volume of 500 ul using PBS containing 0.9 mM Ca2^+ and 0.5 mM Mg2^+ and analyzed by flow cytometry.
To identify how DNA-damaging chemotherapy could be optimally used to enhance anti-tumor immune function, cytotoxicity assays were performed using the B16F10 melanoma tumor cell line expressing ovalbumin (B16-Ova). Cells were treated with clinically used chemotherapeutic agents followed by assaying for cell death by DAPI and Annexin V staining 48 hours later.

[8] = system: p38MAPK; test: Western blotting of cell lysates with anti-phospho-p38 antibody; format: cell-based, mouse; settings: B16-Ova cells
[9] = B16-Ova cells treated with 10 uM for 24 h
[10] = B16-Ova cells treated with 50 uM for 24 h

O=C1c2c(O)ccc(O)c2C(=O)c2c(NCCNCCO)ccc(NCCNCCO)c21 [Mito, mitoxantrone]
viability at 48 h, 10 µM [1]: 0.0743%
viability at 48 h, 50 µM [1]: 0.000452%
HMGB1 (ng/ml) MEAN ([2]; 10 uM): 70.09 ng/mL
HMGB1 (ng/ml) MEAN ([2]; 50 uM): 14.63 ng/mL
CALR (%) ([3]; 10 uM): 17.10%
CALR (%) ([3]; 50 uM): 4.15%
level of externalized calreticulin [3]: highest level of externalized calreticulin
IFN-γ responses in T-cells ([4]; 5 uM): maximum IFN-γ responses
IFN-γ responses in T-cells ([4]; 10 uM): lower IFN-γ response
IFN-γ responses in T-cells ([4]; 25 uM and higher doses): undetectable
inducing the appearance of IFNγ+OT-1 CD8+ T-cells [4]: highly effective
% CD3+CD8+IFN-γ+ T-cells MEAN [4, 9]: 5.57%
% CD3+CD8+IFN-γ+ T-cells MEAN [4, 10]: 0.44%
% CD3+CD8+IFN-γ+ T-cells MEAN ([4]; Table 7 experiment, 10 uM alone): 3.98%
reduction of the percentage of IFNg+ T-cells by siRNA knockdown of calreticulin [4]: ~80%
% CD3+CD8+IFN-γ+ T-cells MEAN ([4]; siCalR (calreticulin knockdown) B16-Ova cells, 10 uM): 1.10%
% CD3+CD8+IFN-γ+ T-cells MEAN ([4]; siCtrl (control siRNA) B16-Ova cells, 10 uM): 4.63%
ATP (nM) MEAN ([5]; 10 uM): 1.02 nM
ATP (nM) MEAN ([5]; 50 uM): 1.80 nM
ATP release ([5]; after 24 hours of treatment): Substantial ATP release
dead cell proportion ([6]; 25 uM and higher doses): greater than 90%
dead cell proportion ([6]; between 5 and 10 uM): ~50%
cell death by DAPI and Annexin V staining [7]: caused varying extents of apoptotic and non-apoptotic cell death
cytotoxicity at 10 µM ([7]; read-out: AnnV+DAPI+ (%) Mean): 52.4%
cytotoxicity at 10 µM ([7]; read-out: AnnV+DAPI− (%) Mean): 17.1%
cytotoxicity at 10 µM ([7]; read-out: AnnV−DAPI+ (%) Mean): 9.44%
viability at 10 µM [7]: 21.1%
cytotoxicity at 50 µM ([7]; read-out: AnnV+DAPI+ (%) Mean): 73.8%
cytotoxicity at 50 µM ([7]; read-out: AnnV+DAPI− (%) Mean): 11.7%
cytotoxicity at 50 µM ([7]; read-out: AnnV−DAPI+ (%) Mean): 8.5%
viability at 50 µM [7]: 6.08%
p38MAPK activation [8]: p38MAPK activation

COc1cc([C@@H]2c3cc4c(cc3[C@@H](O[C@@H]3O[C@@H]5CO[C@@H](C)O[C@H]5[C@H](O)[C@H]3O)[C@H]3COC(=O)[C@H]23)OCO4)cc(OC)c1O [Etop, etoposide]
viability at 48 h, 10 µM [1]: 34.9%
viability at 48 h, 50 µM [1]: 36.1%
HMGB1 (ng/ml) MEAN ([2]; 10 uM): 29.24 ng/mL
HMGB1 (ng/ml) MEAN ([2]; 50 uM): 10.65 ng/mL
HMGB1 release into the media ([2]; 24-48 hours post-treatment window): lowest levels of HMGB1 release
CALR (%) ([3]; 10 uM): 9.69%
CALR (%) ([3]; 50 uM): 9.69%
level of externalized calreticulin [3]: intermediate levels of calreticulin exposure
inducing the appearance of IFNγ+OT-1 CD8+ T-cells [4]: highly effective
% CD3+CD8+IFN-γ+ T-cells MEAN [4, 9]: 0.86%
% CD3+CD8+IFN-γ+ T-cells MEAN [4, 10]: 4.80%
% CD3+CD8+IFN-γ+ T-cells MEAN ([4]; Table 7 experiment, 50 uM alone): 4.11%
% CD3+CD8+IFN-γ+ T-cells MEAN ([4]; Table 10 experiment, Etop 50 uM alone): 22.90%
appearance of IFN-γ+ CD8+ T-cells ([4]; co-exposure of both BMDCs and tumor cells, compared to exposure of B16-Ova cells alone): significantly reduced the appearance of IFN-γ+ CD8+ T-cells
reduction of the percentage of IFNg+ T-cells by siRNA knockdown of calreticulin [4]: ~50%
magnitude of IFN-γ responses in T-cells ([4]; increasing doses from 0 to 100 uM): corresponding increase in the magnitude of IFN-γ responses
% CD3+CD8+IFN-γ+ T-cells MEAN ([4]; siCalR (calreticulin knockdown) B16-Ova cells, 50 uM): 2.71%
% CD3+CD8+IFN-γ+ T-cells MEAN ([4]; siCtrl (control siRNA) B16-Ova cells, 50 uM): 5.25%
tumor-directed T-cells relative to the level when exposure is limited to the tumor cells alone ([4]; triple co-exposure of tumor cells, BMDCs and T-cells): less than 10%
ATP (nM) MEAN ([5]; 10 uM): 2.05 nM
ATP (nM) MEAN ([5]; 50 uM): 1.35 nM
proportion of dead cells (AnnV or DAPI single or double positive) ([6]; 25 uM): ~30%
further increase of the proportion of dead cells ([6]; 100 uM): ~5%
proportion of dead cells (AnnV or DAPI single or double positive) ([6]; between 25 and 75 uM): ~30%
cell death by DAPI and Annexin V staining [7]: caused varying extents of apoptotic and non-apoptotic cell death
cytotoxicity at 10 µM ([7]; read-out: AnnV+DAPI+ (%) Mean): 51%
cytotoxicity at 10 µM ([7]; read-out: AnnV+DAPI− (%) Mean): 11.6%
cytotoxicity at 10 µM ([7]; read-out: AnnV−DAPI+ (%) Mean): 6.54%
viability at 10 µM [7]: 30.9%
cytotoxicity at 50 µM ([7]; read-out: AnnV+DAPI+ (%) Mean): 47.9%
cytotoxicity at 50 µM ([7]; read-out: AnnV+DAPI− (%) Mean): 10.9%
cytotoxicity at 50 µM ([7]; read-out: AnnV−DAPI+ (%) Mean): 4.57%
viability at 50 µM [7]: 36.6%
p38MAPK activation [8]: p38MAPK activation

From patent US20210154281A1, “CELL-BASED CANCER VACCINES AND CANCER THERAPIES” (Massachusetts Institute of Technology, priority 2019, published 2021)
